Holding throughout (assay type): biochemical
One experiment addresses recombinant rat PIM-3 (Rattus norvegicus, UniProt O70444). The experiment in a line: PIM-3 Assay (as Example A). Conditions: averaged IC50; 30 μM ATP, 3.75 μM PIM2tide, 0.5 nM PIM-3. A digest of the protocol:
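33P incorporation from 30 μM [γ-33P]ATP into 3.75 μM PIM2tide by 0.5 nM rat PIM-3, 60 min at 22 °C in pH 7.4 MOPS buffer, read by P81 filter capture and scintillation counting. Compounds tested in 3-fold dilutions up to 10 μM final, 2% DMSO; percent-of-control data fitted by 4-parameter logistic for IC50.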

In a further experiment the target is PIM-1 (Homo sapiens, UniProt P11309). The experiment in a line: Enzyme PIM-1 Assay ([33P]ATP incorporation into PIM2tide, filter plate). The conditions noted are these: averaged IC50; 35 μM ATP, 7.5 μM PIM2tide, 0.25 nM PIM-1, 60 min at 22° C. A digest of the protocol:
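Ten-point, 3-fold dilution series (10 μM top, 2% DMSO final) tested for inhibition of 33P transfer from 35 μM ATP to 7.5 μM PIM2tide by 0.25 nM PIM-1. Reaction 60 min, 22 °C, pH 7.4 MOPS/MgCl2 buffer; phosphocellulose capture, scintillation counting, IC50 where fitted POC equals 50.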

The target in experiment [1] is T1, GST-tagged recombinant full-length human Pim-2 (Homo sapiens, UniProt Q9P1W9).
T1 construct: GST-tagged recombinant full-length human Pim-2; GST
Briefly: PIM-2 Assay (as Example A). Conditions: averaged IC50; 4 μM ATP, 1.0 μM PIM2tide, 1.5 nM Pim-2. Put shortly: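 IC50 was derived by 4-parameter logistic fitting of percent-of-control data over a 10-point, 3-fold series (highest 10 μM, 2% DMSO). Reactions held 1.5 nM GST-Pim-2 (full-length, human), 4 μM [γ-33P]ATP and 1.0 μM PIM2tide for 60 min at 22 °C, pH 7.4; 33P-peptide captured on P81 filters.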

Structures can show the parent of a compound that is named as a salt.

Chain of PIM-1 (P11309 whole entry, species assumed): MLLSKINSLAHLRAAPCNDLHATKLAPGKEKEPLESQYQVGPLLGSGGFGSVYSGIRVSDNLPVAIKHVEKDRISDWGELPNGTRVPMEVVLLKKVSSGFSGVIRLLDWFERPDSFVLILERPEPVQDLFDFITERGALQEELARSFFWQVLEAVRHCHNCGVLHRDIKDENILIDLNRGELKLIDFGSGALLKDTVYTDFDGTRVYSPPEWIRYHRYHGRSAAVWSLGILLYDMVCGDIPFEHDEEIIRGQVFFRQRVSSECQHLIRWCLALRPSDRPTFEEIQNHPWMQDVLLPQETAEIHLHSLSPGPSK
T1 sequence (Q9P1W9 whole entry): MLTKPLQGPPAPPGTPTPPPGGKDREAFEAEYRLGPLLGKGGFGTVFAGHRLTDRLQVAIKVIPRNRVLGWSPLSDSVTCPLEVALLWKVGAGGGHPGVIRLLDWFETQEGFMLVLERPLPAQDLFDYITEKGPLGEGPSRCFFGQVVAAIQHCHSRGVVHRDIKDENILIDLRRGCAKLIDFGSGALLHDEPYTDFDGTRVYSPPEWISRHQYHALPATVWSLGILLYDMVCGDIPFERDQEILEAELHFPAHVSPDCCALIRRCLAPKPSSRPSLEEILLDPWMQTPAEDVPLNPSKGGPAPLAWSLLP

In general, IC50 refers to the concentration at which inhibition is half-maximal. Take `COC[C@@H](C)Oc1cc(F)cc2ccc(-c3nnc4ccc([C@H](N5CC[C@](C)(N)C5)C(F)(F)F)cn34)nc12` [Example 221, (S)-3-methyl-1-((S)-2,2,2-trifluoro-1-(3-(6-fluoro-8-((R)-1-methoxypropan-2-yloxy)quinolin-2-yl)-[1,2,4]triazolo[4,3-a]pyridin-6-yl)ethyl)pyrrolidin-3-amine dihydrochloride]: the values for the half-inhibitory concentration (IC50) (at recombinant rat PIM-3; against PIM-1; in experiment [1]) were 1 nM, 0.41 nM and 128 nM, respectively.
As to `CC(C)Oc1cccc2ccc(-c3nnc4ccc([C@@H](N5CC[C@](C)(N)C5)C(F)(F)F)cn34)nc12` [Example 93, (S)-3-methyl-1-((R)-2,2,2-trifluoro-1-(3-(8-isopropoxyquinolin-2-yl)-[1,2,4]triazolo[4,3-a]pyridin-6-yl)ethyl)pyrrolidin-3-amine dihydrochloride], the IC50 on recombinant rat PIM-3 is 0.9 nM; on PIM-1, 0.2 nM; in experiment [1], 83 nM.
As for `COc1cc2nc(-c3nnc4ccc([C@@H](N5C[C@@H](N)[C@H](F)C5)C(F)(F)F)cn34)ccc2cc1F` [Example 211, (3R,4R)-4-fluoro-1-((R)-2,2,2-trifluoro-1-(3-(6-fluoro-7-methoxyquinolin-2-yl)-[1,2,4]triazolo[4,3-a]pyridin-6-yl)ethyl)pyrrolidin-3-amine dihydrochloride], the concentration for half-maximal inhibition (IC50) on recombinant rat PIM-3 was 4 nM; against PIM-1, 0.52 nM; in experiment [1] it was 645 nM.
Regarding `N#Cc1cccc2ccc(-c3nnc4ccc([C@@H](N5CC[C@H](N)C5)C(F)(F)F)cn34)nc12` [Example 88, 2-(6-((R)-1-((S)-3-aminopyrrolidin-1-yl)-2,2,2-trifluoroethyl)-[1,2,4]triazolo[4,3-a]pyridin-3-yl)quinoline-8-carbonitrile dihydrochloride], the IC50 is 18 nM at recombinant rat PIM-3, 3.26 nM against PIM-1 and above 100 nM in experiment [1].
Consider `C[C@H](CO)Oc1cc(F)cc2ccc(-c3nnc4ccc([C@@H](N5CC[C@H](N)C5)C(F)(F)F)cn34)nc12` [Example 238, (R)-2-(2-(6-((R)-1-((S)-3-aminopyrrolidin-1-yl)-2,2,2-trifluoroethyl)-[1,2,4]triazolo[4,3-a]pyridin-3-yl)-6-fluoroquinolin-8-yloxy)propan-1-ol dihydrochloride], for which the 50% inhibitory concentration (IC50) amounted to 0.6 nM on recombinant rat PIM-3, 0.17 nM against PIM-1 and 166 nM in experiment [1].
As for `CC(C)(O)COc1cc(F)cc2ccc(-c3nnc4ccc([C@@H](N5CC[C@H](N)C5)C(F)(F)F)cn34)nc12` [Example 259, 1-(2-(6-((R)-1-((S)-3-aminopyrrolidin-1-yl)-2,2,2-trifluoroethyl)-[1,2,4]triazolo[4,3-a]pyridin-3-yl)-6-fluoroquinolin-8-yloxy)-2-methylpropan-2-ol formate], the IC50 at recombinant rat PIM-3 was determined as 0.3 nM; at PIM-1, 0.12 nM; in experiment [1], 54 nM.
With `N[C@H]1CCN(C(c2ccc3nnc(-c4ccc5ccc(Br)cc5n4)n3c2)C(F)(F)F)C1` (stereo partly drawn) [Example 2, (3S)-1-(1-(3-(7-bromoquinolin-2-yl)-[1,2,4]triazolo[4,3-a]pyridin-6-yl)-2,2,2-trifluoroethyl)pyrrolidin-3-amine dihydrochloride], the IC50 at recombinant rat PIM-3 came to 1 nM; against PIM-1, 0.19 nM; in experiment [1], 74 nM.
As to `CC1Cc2c(ccc3ccc(-c4nnc5ccc([C@@H](N6CC[C@H](N)C6)C(F)(F)F)cn45)nc23)O1` (stereo partly drawn) [Example 144, (3S)-1-((1R)-2,2,2-trifluoro-1-(3-(8-methyl-8,9-dihydrofuro[2,3-h]quinolin-2-yl)-[1,2,4]triazolo[4,3-a]pyridin-6-yl)ethyl)pyrrolidin-3-amine dihydrochloride], the concentration for half-maximal inhibition (IC50) turned out to be 1 nM at recombinant rat PIM-3, 0.95 nM against PIM-1 and 48 nM in experiment [1].
Regarding `N[C@H]1CCN([C@H](c2ccc3nnc(-c4ccc5cccc(O)c5n4)n3c2)C(F)(F)F)C1` [Example 208, 2-(6-((R)-1-((S)-3-aminopyrrolidin-1-yl)-2,2,2-trifluoroethyl)-[1,2,4]triazolo[4,3-a]pyridin-3-yl)quinolin-8-ol dihydrochloride], the IC50 was 2.5 nM at recombinant rat PIM-3, 0.41 nM at PIM-1 and above 1000 nM in experiment [1].
In the same order, the values of `CC(C)Oc1cccc2ccc(-c3nnc4ccc([C@@H](N5CCC(N)(CO)C5)C(F)(F)F)cn34)nc12` (stereo partly drawn) [Example 197, (3-amino-1-((R)-2,2,2-trifluoro-1-(3-(8-isopropoxyquinolin-2-yl)-[1,2,4]triazolo[4,3-a]pyridin-6-yl)ethyl)pyrrolidin-3-yl)methanol dihydrochloride] are 0.9 nM, 0.3 nM and 150 nM.
Take `CCC1(N)CCN([C@@H](c2ccc3nnc(-c4ccc5cccc(OC)c5n4)n3c2)C(F)(F)F)C1` (single isomer, unassigned; diastereomer 1) [Example 250, dihydrochloride]: the IC50 is 11 nM at recombinant rat PIM-3, 2.77 nM on PIM-1 and 861 nM in experiment [1].
For `COc1c(C2CC2)ccc2ccc(-c3nnc4ccc([C@@H](N5CC[C@H](N)C5)C(F)(F)F)cn34)nc12` [Example 69, (S)-1-((R)-1-(3-(7-cyclopropyl-8-methoxyquinolin-2-yl)-[1,2,4]triazolo[4,3-a]pyridin-6-yl)-2,2,2-trifluoroethyl)pyrrolidin-3-amine dihydrochloride], in that order: 0.5 nM, 0.21 nM and 38 nM.
On to `COc1cc2nc(-c3nnc4ccc([C@@H](N5CC(F)[C@H](N)C5)C(F)(F)F)cn34)ccc2cc1F` (stereo partly drawn) [Example 162, (3R)-4-fluoro-1-((R)-2,2,2-trifluoro-1-(3-(6-fluoro-7-methoxyquinolin-2-yl)-[1,2,4]triazolo[4,3-a]pyridin-6-yl)ethyl)pyrrolidin-3-amine dihydrochloride], for which the IC50 at recombinant rat PIM-3 was 35 nM; at PIM-1, 1.24 nM; in experiment [1], above 100 nM.
For the compound `CC1(COc2cccc3ccc(-c4nnc5ccc([C@@H](N6CC[C@H](N)C6)C(F)(F)F)cn45)nc23)COC1` [Example 192, (S)-1-((R)-2,2,2-trifluoro-1-(3-(8-(3-methyloxetan-3-yl)methoxy)quinolin-2-yl)-[1,2,4]triazolo[4,3-a]pyridin-6-yl)ethyl)pyrrolidin-3-amine diformate], the values for the 50% inhibitory concentration (IC50) (on recombinant rat PIM-3; against PIM-1; in experiment [1]) were 0.5 nM, 0.17 nM and 80 nM, respectively.
As for `COC[C@@H](C)Oc1ccc2ccc(-c3nnc4ccc([C@@H](N5CC[C@H](N)C5)C(F)(F)F)cn34)nc2c1F` [Example 180, (S)-1-((R)-2,2,2-trifluoro-1-(3-(8-fluoro-7-((R)-1-methoxypropan-2-yloxy)quinolin-2-yl)-[1,2,4]triazolo[4,3-a]pyridin-6-yl)ethyl)pyrrolidin-3-amine dihydrochloride], the half-maximal inhibitory concentration (IC50) on recombinant rat PIM-3 is 13 nM; at PIM-1, 3.08 nM; in experiment [1], above 100 nM.
Take `CO[C@@H](C)COc1cc2nc(-c3nnc4ccc([C@@H](N5CC[C@H](N)C5)C(F)(F)F)cn34)ccc2cc1F` [Example 323, (S)-1-((R)-2,2,2-trifluoro-1-(3-(6-fluoro-7-((S)-2-methoxypropoxy)quinolin-2-yl)-[1,2,4]triazolo[4,3-a]pyridin-6-yl)ethyl)pyrrolidin-3-amine di-hydrochloride]: the half-maximal inhibitory concentration (IC50) on recombinant rat PIM-3 is 0.2 nM; against PIM-1, 0.14 nM; in experiment [1], 145 nM.
Consider `CC(C)Oc1cccc2ccc(-c3nnc4ccc([C@H](N5CC[C@](C)(N)C5)C(F)(F)F)cn34)nc12` [Example 92, (S)-3-methyl-1-((S)-2,2,2-trifluoro-1-(3-(8-isopropoxyquinolin-2-yl)-[1,2,4]triazolo[4,3-a]pyridin-6-yl)ethyl)pyrrolidin-3-amine dihydrochloride], for which the IC50 on recombinant rat PIM-3 came to 0.8 nM; on PIM-1, 0.22 nM; in experiment [1] it was 33 nM.
`CCOc1cc2nc(-c3nnc4ccc([C@H](N5CC[C@H](CN)C5)C(F)(F)F)cn34)ccc2cc1F` [Example 296, ((R)-1-((S)-1-(3-(7-ethoxy-6-fluoroquinolin-2-yl)-[1,2,4]triazolo[4,3-a]pyridin-6-yl)-2,2,2-trifluoroethyl)pyrrolidin-3-yl)methanamine hydrochloride]: the half-inhibitory concentration (IC50) was 12 nM on recombinant rat PIM-3, 1.51 nM against PIM-1 and above 1000 nM in experiment [1].
As for `CC(C)(C)c1cccc2ccc(-c3nnc4ccc([C@@H](N5CC[C@](N)(CO)C5)C(F)(F)F)cn34)nc12` [Example 189, ((R)-3-amino-1-((R)-1-(3-(8-tert-butylquinolin-2-yl)-[1,2,4]triazolo[4,3-a]pyridin-6-yl)-2,2,2-trifluoroethyl)pyrrolidin-3-yl)methanol dihydrochloride], the results for the IC50 (at recombinant rat PIM-3; against PIM-1; in experiment [1]) were 1.5 nM, 0.57 nM and 85 nM, respectively.

Source of the values: patent publication US8889704B2 (Array BioPharma Inc., priority 2011, dated 2014).
